Patent US20110217293A1, “Uses of morelloflavone” (priority 2008, published 2011)
Entries after “also recorded” stand apart in the source; their conditions may differ.

Key:
Rac1 = assay: GTPase activation assay, Rac1; type: cell-based, mouse; conditions: up to 10 mM
Method: (§1) To assess the phosphorlyation status of ERK, […] of whole cell lysates was loaded onto SDS-PAGE, and Western blot analysis was done using anti-p-ERK (Santa Cruz; E-4; sc-7383) and anti-ERK (Santa Cruz; K-23; sc-94) antibodies. To detect active RhoA, Rac1 and Cdc42, generated GST-tagged RhoA binding domain of Rhotekin protein (GST-Rhotekin-RBD) and GST-tagged p21-binding domain of p21-activated kinase 1 (PAK1)(GST-PAK1-PBD) were first generated. Briefly, E. coli BL21 cells transformed with pGEX4T-PAK1-PBD or pGEX4T-Rh,otekin-RBD were grown at 37° C. and expression of recombinant protein was induced by addition of 0.1 mM IPTG for 3 hours. Cells were resuspended in lysis buffer (50 mM Tris-HCl, pH 8.0, 10% glycerol, 20% sucrose, 2 mM DTT, 1 mg/ml leupeptin, 1 mg/ml pepstatin, and 1 mg/ml aprotinin), sonicated, and centrifuged at 4° C. for 30 min at 45,000 g. The supernatant was incubated with glutathione sepharose 4B beads (GE-Amersham, Piscataway, N.J.) for 1 hour at 4° C., and then washed 3 times in lysis buffer. Using these GST-proteins, GTPase activation assays were performed as described. […]

[1] = Body weight in carotid artery injury study; type: in vivo, mouse; conditions: apoE−/− mice
Method: The carotid artery injury assay was performed as described by Kuhel (16). Male apoE−/− mice were obtained from Jackson Laboratory (Bar Harbor, Me.) and maintained on a 12 hour light/dark cycle. All animal experimentation protocols were performed under institutional guidelines of animal welfare, in accordance with NIH guidelines. Mice were fed either normal rodent chow diet (5001, LabDiet) (n=10) or normal chow diet containing 0.15% morelloflavone (w/w) (n=9). This diet corresponded to 200 mg/kg morelloflavone if a 30 gm mouse consumes 4 grams of chow. Mice were placed on these diets for 7 days before they underwent carotid artery denudation by the insertion of an epoxy resin (Epon) probe as described (16).

RhoA = assay: GTPase activation assay, RhoA; type: cell-based, mouse; conditions: 0.1 mM; low concentrations 0.1 & 1 mM
Method: as §1

[2] = system: vascular smooth muscle cells; assay: Cell attachment; type: cell-based
sPLA2-IIA = target: T1, sPLA2-IIA (Homo sapiens, UniProt P14555); assay: sPLA2 enzyme activity assay, Group IIA; type: biochemical; conditions: recombinant human sPLA2-IIA, data not shown
T1 sequence (P14555 21-144): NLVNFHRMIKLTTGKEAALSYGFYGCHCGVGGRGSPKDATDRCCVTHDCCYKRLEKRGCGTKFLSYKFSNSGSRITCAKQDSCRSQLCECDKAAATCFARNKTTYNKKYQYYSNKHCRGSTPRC
Method: (§2) Recombinant human sPLA2 isoforms, Group IB, Group IIA, Group V, and Lp-PLA2 were obtained from R&D Systems and Cayman Chemical Co. sPLA2 enzyme activities in the presence of various concentrations of morelloflavone or other inhibitors were determined using a commercially available assay system according to the manufacturer's instructions (Cayman Chemical Co.). Thioetheramide-1-palmitylthio-2-palmitoylamido-1,2-dideoxy-sn-glycero-3-phosphorylcholine (T-PC) and methyl arachidonyl fluorophosphonate (MAFP) were used as inhibitors of sPLA2 (IB, IIA, and V) and Lp-PLA2, respectively, per manufacturers' instructions.

[3] = system: vascular smooth muscle cells; assay: BrdU incorporation assay; type: cell-based, mouse; set-up: effect on BrdU labelling indices: dose or concentration left out as unconfirmed
Method: Mouse vascular smooth muscle cells, isolated as described (13), were maintained in 231 media (Cascade Biologics, Portland, Oreg.) supplemented with SMGS (Cascade Biologics) in a humidified incubator at 37° C. with 5% CO2. Cells from passages 4-9 were used in all experiments. All experiments were performed in subconfluent, unsynchronized cells growing in SMGS except for the lamellipodium formation assay.
Vascular smooth muscle cells were seeded at 2×10^4 cells per well in 96-well culture plates and incubated overnight. The next day, cells were found approximately 60-70% confluent. Cells were treated with various concentrations of morelloflavone ([…]) for 2 hrs and then pulsed with BrdU at 1 mM for 8 hrs. The amount of BrdU incorporated into the cells was quantified by BrdU Cell Proliferation Assay kit (Calbiochem, San Diego, Calif.), according to manufacturer's instructions. Briefly, the cells were fixed and permeabilized on tissue culture plastic, and incubated with anti-BrdU monoclonal antibody. After extensive washing, bound antibodies were visualized by goat anti-mouse IgG conjugated to horseradish peroxidase and tetra-methylbenzidine substrate and quantified by spectrophotometer at 450 nm. The protein content was determined using the Bradford assay (Bio-Rad, Hercules, Calif.).

Lp-PLA2 = target: T2, Lp-PLA2 (Homo sapiens, UniProt Q13093); assay: PLA2 enzyme activity assay, Lp-PLA2; type: biochemical; conditions: recombinant human Lp-PLA2, data not shown
T2 sequence (Q13093 22-441): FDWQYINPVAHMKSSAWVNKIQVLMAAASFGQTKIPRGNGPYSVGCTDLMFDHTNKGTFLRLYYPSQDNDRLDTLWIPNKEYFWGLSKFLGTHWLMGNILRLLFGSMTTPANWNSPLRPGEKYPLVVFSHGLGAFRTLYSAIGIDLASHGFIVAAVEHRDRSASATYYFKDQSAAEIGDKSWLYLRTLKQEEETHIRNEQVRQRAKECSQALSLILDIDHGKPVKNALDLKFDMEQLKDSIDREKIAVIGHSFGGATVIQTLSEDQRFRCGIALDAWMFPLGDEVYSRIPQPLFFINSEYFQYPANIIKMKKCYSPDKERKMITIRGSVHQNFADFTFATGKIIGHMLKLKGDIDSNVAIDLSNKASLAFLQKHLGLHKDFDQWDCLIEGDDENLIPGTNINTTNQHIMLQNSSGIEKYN
Method: as §2

Compound: O=C1c2c(O)cc(O)cc2O[C@H](c2ccc(O)cc2)[C@H]1c1c(O)cc(O)c2c(=O)cc(-c3ccc(O)c(O)c3)oc12 [morelloflavone, 5,7, 4′, 5″, 7″, 3″, 4″-heptahydroxy-[3,8″]-flavonylflavanone]
- activation of Rac1 (Rac1): no significant effect; also recorded: without affecting
- Body weight ([1]; at the time of sacrifice): 23.3 ± 1.5 g
- Body weight ([1]; before injury): 24.0 ± 2.0 g
- activation of RhoA (RhoA): inhibited; also recorded: blocks the activation
- effect on cell attachment [2]: does not affect cell attachment
- IC50 (sPLA2-IIA): > 10 µM
- effect on BrdU labelling indices [3]: decreases BrdU labelling indices
- effect on percentage of S-phase cells / DNA synthesis (BrdU) ([3]; concentrations up to 10 mM): did not significantly affect DNA synthesis; also recorded: does not affect the percentage of S-phase cells; also recorded: does not affect cell cycle progression
- inhibition of Lp-PLA2 (Lp-PLA2): did not inhibit
